From ChEMBL document CHEMBL3045074, “Synthesis and anticonvulsant activity of novel quinazolin-4(3H)-one derived pyrazole analogs” (Med Chem Res, 2013)
Calls of active or inactive are those of the source. The calls are words filed in the database; no cut-off is given here.

Legend:
[1] = tested on: Mus musculus; assay: Anticonvulsant activity in Swiss albino Mus musculus (mouse) assessed as protection against maximal electroshock-induced seizures at 30 mg/kg, ip after 0.5 hr; format: functional, organism-based; set-up: dose 30 mg/kg
[2] = tested on: Rattus norvegicus; assay: Anticonvulsant activity in Wistar Rattus norvegicus (rat) assessed as protection against maximal electroshock-induced seizures at 30 mg/kg, po after 4 hr; format: functional
[3] = tested on: Rattus norvegicus; assay: Neurotoxicity in Wistar Rattus norvegicus (rat) assessed as minimal motor impairment at 30 mg/kg, po after 0.25 to 4 hr by rotorod test; format: toxicity, organism-based; set-up: dose 30 mg/kg, route oral; settings: in vivo
[4] = tested on: Rattus norvegicus; assay: Anticonvulsant activity in Wistar Rattus norvegicus (rat) assessed as protection against maximal electroshock-induced seizures at 30 mg/kg, po after 2 hr; format: functional
[5] = tested on: Rattus norvegicus; assay: Anticonvulsant activity in Wistar Rattus norvegicus (rat) assessed as protection against maximal electroshock-induced seizures at 30 mg/kg, po after 1 hr; format: functional
[6] = tested on: Rattus norvegicus; assay: Anticonvulsant activity in Wistar Rattus norvegicus (rat) assessed as protection against maximal electroshock-induced seizures at 30 mg/kg, po after 0.5 hr; format: functional
[7] = tested on: Rattus norvegicus; assay: Anticonvulsant activity in Wistar Rattus norvegicus (rat) assessed as protection against maximal electroshock-induced seizures at 30 mg/kg, po after 0.25 hr; format: functional
[8] = tested on: Mus musculus; assay: Neurotoxicity in Swiss albino Mus musculus (mouse) assessed as minimal motor impairment at 300 mg/kg, ip after 4 hr by rotorod test; format: toxicity, organism-based; set-up: dose 300 mg/kg, route intraperitoneal; settings: in vivo
[9] = tested on: Mus musculus; assay: Neurotoxicity in Swiss albino Mus musculus (mouse) assessed as minimal motor impairment at 300 mg/kg, ip after 0.5 hr by rotorod test; format: toxicity, organism-based; set-up: dose 300 mg/kg, route intraperitoneal; settings: in vivo
[10] = tested on: Mus musculus; assay: Anticonvulsant activity in Swiss albino Mus musculus (mouse) assessed as protection against subcutaneous pentylenetetrazole-induced seizure at 300 mg/kg, ip after 4 hr; format: functional, organism-based; set-up: dose 300 mg/kg
[11] = tested on: Mus musculus; assay: Anticonvulsant activity in Swiss albino Mus musculus (mouse) assessed as protection against subcutaneous pentylenetetrazole-induced seizure at 100 mg/kg, ip after 0.5 hr; format: functional, organism-based; set-up: dose 100 mg/kg
[12] = tested on: Mus musculus; assay: Anticonvulsant activity in Swiss albino Mus musculus (mouse) assessed as protection against maximal electroshock-induced seizures at 100 mg/kg, ip after 4 hr; format: functional, organism-based; set-up: dose 100 mg/kg
[13] = tested on: Mus musculus; assay: Anticonvulsant activity in Swiss albino Mus musculus (mouse) assessed as protection against maximal electroshock-induced seizures at 100 mg/kg, ip after 0.5 hr; format: functional, organism-based; set-up: dose 100 mg/kg
[14] = tested on: Mus musculus; assay: Anticonvulsant activity in Swiss albino Mus musculus (mouse) assessed as protection against subcutaneous pentylenetetrazole-induced seizure at 300 mg/kg, ip after 0.5 hr; format: functional, organism-based; set-up: dose 300 mg/kg
[15] = tested on: Mus musculus; assay: Anticonvulsant activity in Swiss albino Mus musculus (mouse) assessed as protection against maximal electroshock-induced seizures at 300 mg/kg, ip after 4 hr; format: functional, organism-based; set-up: dose 300 mg/kg
[16] = tested on: Mus musculus; assay: Anticonvulsant activity in Swiss albino Mus musculus (mouse) assessed as protection against maximal electroshock-induced seizures at 300 mg/kg, ip after 0.5 hr; format: functional, organism-based; set-up: dose 300 mg/kg
[17] = tested on: Mus musculus; assay: Neurotoxicity in Swiss albino Mus musculus (mouse) assessed as minimal motor impairment at 100 mg/kg, ip after 0.5 hr by rotorod test; format: toxicity, organism-based; set-up: dose 100 mg/kg, route intraperitoneal; settings: in vivo
[18] = tested on: Mus musculus; assay: Neurotoxicity in Swiss albino Mus musculus (mouse) assessed as minimal motor impairment at 100 mg/kg, ip after 4 hr by rotorod test; format: toxicity, organism-based; set-up: dose 100 mg/kg, route intraperitoneal; settings: in vivo
[19] = tested on: Mus musculus; assay: Anticonvulsant activity in Swiss albino Mus musculus (mouse) assessed as protection against maximal electroshock-induced seizures at 30 mg/kg, ip after 4 hr; format: functional, organism-based; set-up: dose 30 mg/kg
[20] = tested on: Mus musculus; assay: Anticonvulsant activity in Swiss albino Mus musculus (mouse) assessed as protection against subcutaneous pentylenetetrazole-induced seizure at 30 to 300 mg/kg, ip after 0.5 hr; format: functional, organism-based

Compound | Activity [1] | Activity [2] | Activity [3] | Activity [4] | Activity [5] | Activity [6] | Activity [7] | Activity [8] | Activity [9] | Activity [10] | Activity [11] | Activity [12] | Activity [13] | Activity [14] | Activity [15] | Activity [16] | Activity [17] | Activity [18] | Activity [19] | Activity [20]
Cc1nc2ccccc2c(=O)n1-c1ccc(C(=O)N2N=C(c3ccccc3)CC2c2ccc(Cl)cc2)cc1 (configuration not stated) | Active | 75% | Non-toxic | 75% | 50% | 50% | 25% | Non-toxic | Toxic | Active | Active | Active |  |  |  |  |  |  |  | 
O=C(c1ccc(-n2c(-c3ccccc3)nc3ccccc3c2=O)cc1)N1N=C(c2ccccc2)CC1c1ccc(Cl)cc1 (configuration not stated) |  |  |  |  |  |  |  | Toxic | Non-toxic | inactive |  |  | Active | Active | Active |  |  |  |  | 
Cc1ccc(C2CC(c3ccccc3)=NN2C(=O)c2ccc(-n3c(C)nc4ccccc4c3=O)cc2)cc1 (configuration not stated) |  | 75% | Non-toxic | 75% | 50% | 50% | 25% | Non-toxic | Non-toxic | Active | Active |  | Active |  | Active |  |  |  |  | 
O=C(c1ccc(-n2c(-c3ccccc3)nc3ccccc3c2=O)cc1)N1N=C(c2ccccc2)CC1c1ccc(O)cc1 (configuration not stated) |  |  |  |  |  |  |  | Non-toxic | Non-toxic | Active |  |  | Active | inactive | inactive |  |  |  |  | 
Cc1ccc(C2CC(c3ccccc3)=NN2C(=O)c2ccc(-n3c(-c4ccccc4)nc4ccccc4c3=O)cc2)cc1 (configuration not stated) |  |  |  |  |  |  |  |  |  | inactive |  |  |  | inactive | inactive | Active |  |  |  | 
O=C(c1ccc(-n2c(-c3ccccc3)nc3ccccc3c2=O)cc1)N1N=C(c2ccccc2)CC1c1cccc([N+](=O)[O-])c1 (configuration not stated) |  |  |  |  |  |  |  |  |  | inactive |  |  |  | Active | inactive | inactive |  |  |  | 
Cc1nc2ccccc2c(=O)n1-c1ccc(C(=O)N2N=C(c3ccccc3)CC2c2ccc(O)cc2)cc1 (configuration not stated) | Active | 100% | Non-toxic | 100% | 50% | 50% | 25% | Toxic |  | Active |  |  |  | Active | Active |  | Toxic |  |  | 
CCC1(C)CC(=O)NC1=O (configuration not stated) [ETHOSUXIMIDE] |  |  |  |  |  |  |  | Non-toxic | Non-toxic | Active | Active |  |  |  | inactive | inactive |  |  |  | 
COc1ccc(C2CC(c3ccccc3)=NN2C(=O)c2ccc(-n3c(C)nc4c(Br)cc(Br)cc4c3=O)cc2)cc1 (configuration not stated) |  |  |  |  |  |  |  | Toxic | Toxic | inactive |  |  | Active | Active | Active |  |  |  |  | 
CN(C)c1ccc(C2CC(c3ccccc3)=NN2C(=O)c2ccc(-n3c(-c4ccccc4)nc4ccccc4c3=O)cc2)cc1 (configuration not stated) |  |  |  |  |  |  |  |  |  | inactive |  |  |  | inactive | Active | inactive |  |  |  | 
Cc1nc2ccccc2c(=O)n1-c1ccc(C(=O)N2N=C(c3ccccc3)CC2c2ccc(N(C)C)cc2)cc1 (configuration not stated) |  | 50% | Non-toxic | 25% | 0% | 0% | 0% | Non-toxic | Non-toxic | Active | Active |  | Active |  | Active |  |  |  |  | 
Cc1nc2c(Br)cc(Br)cc2c(=O)n1-c1ccc(C(=O)N2N=C(c3ccccc3)CC2c2ccc(O)cc2)cc1 (configuration not stated) | Active | 100% | Non-toxic | 100% | 50% | 50% | 25% | Non-toxic | Toxic | Active |  | Active |  | Active |  |  |  |  |  | 
Cc1nc2ccccc2c(=O)n1-c1ccc(C(=O)N2N=C(c3ccccc3)CC2c2cccc([N+](=O)[O-])c2)cc1 (configuration not stated) |  |  |  |  |  |  |  |  |  | Active |  |  |  | inactive | inactive | inactive |  |  |  | 
Cc1nc2c(Br)cc(Br)cc2c(=O)n1-c1ccc(C(=O)N2N=C(c3ccccc3)CC2c2ccc(N(C)C)cc2)cc1 (configuration not stated) | Active | 0% | Non-toxic | 0% | 25% | 50% | 0% | Toxic | Toxic | inactive |  | Active |  | Active |  |  |  |  |  | 
COc1ccc(C2CC(c3ccccc3)=NN2C(=O)c2ccc(-n3c(-c4ccccc4)nc4ccccc4c3=O)cc2)cc1 (configuration not stated) |  |  |  |  |  |  |  |  |  | Active |  |  |  | inactive | Active | inactive |  |  |  | 
COc1ccc(C2CC(c3ccccc3)=NN2C(=O)c2ccc(-n3c(C)nc4ccccc4c3=O)cc2)cc1 (configuration not stated) |  |  |  |  |  |  |  | Toxic | Non-toxic | inactive |  |  | Active | Active | inactive |  |  |  |  | 
Cc1nc2c(Br)cc(Br)cc2c(=O)n1-c1ccc(C(=O)N2N=C(c3ccccc3)CC2c2ccc(Cl)cc2)cc1 (configuration not stated) | Active | 100% | Non-toxic | 100% | 50% | 50% | 25% | Non-toxic | Non-toxic | Active | Active | Active |  |  |  |  |  |  |  | 
O=C1NC(=O)C(c2ccccc2)(c2ccccc2)N1 [PHENYTOIN] | Active | 75% | Non-toxic | 75% | 75% | 100% | 25% |  |  | inactive |  |  |  | inactive |  |  | Toxic | Toxic | Active | 
Cc1ccc(C2CC(c3ccccc3)=NN2C(=O)c2ccc(-n3c(C)nc4c(Br)cc(Br)cc4c3=O)cc2)cc1 (configuration not stated) |  | 75% | Non-toxic | 75% | 50% | 50% | 25% | Toxic | Non-toxic | Active |  |  | Active |  | Active |  |  |  |  | Active
Cc1nc2c(Br)cc(Br)cc2c(=O)n1-c1ccc(C(=O)N2N=C(c3ccccc3)CC2c2cccc([N+](=O)[O-])c2)cc1 (configuration not stated) |  |  |  |  |  |  |  |  |  | Active |  |  |  | inactive | inactive | inactive |  |  |  | 
